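Method: 48-hour compound exposure of cells in 96-well plates, five concentrations, linear interpolation of endpoints. GI50 is the concentration that inhibits growth by half.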 Active and inactive are the calls of the source. Cut-off read from the data, not from the text of the source: active = GI50 up to about 1.1 µM and inactive = higher.
Columns and labels:
Test in all cases: NCI anticancer screen, dose series, 48 h
A549 = system: A549
UO-31 = system: UO-31
CAKI-1 = system: CAKI-1
786-0 = system: 786-0
A498 = system: A498
CCRF-CEM = system: CCRF-CEM
NCI-H460 = system: NCI-H460
KM12 = system: KM12
RPMI-8226 = system: RPMI-8226
OVCAR-8 = system: OVCAR-8
TK-10 = system: TK-10
UACC-62 = system: UACC-62
OVCAR-4 = system: OVCAR-4
DLD-1 = system: DLD-1
SNB-78 = system: SNB-78
EKVX = system: EKVX
M19-MEL = system: M19-MEL
IGROV-1 = system: IGROV-1
HT-29 = system: HT-29
LOX IMVI = system: LOX IMVI
UACC-257 = system: UACC-257
KM-20L2 = system: KM-20L2
LXFL 529 = system: LXFL 529
SF-295 = system: SF-295
ACHN = system: ACHN
SF-539 = system: SF-539
OVCAR-3 = system: OVCAR-3
HCT-116 = system: HCT-116
OVCAR-5 = system: OVCAR-5
NCI-H226 = system: NCI-H226
DMS-114 = system: DMS-114
RXF 631 = system: RXF 631
HCT-15 = system: HCT-15
SK-OV-3 = system: SK-OV-3
HOP-62 = system: HOP-62
Malme-3M = system: Malme-3M
NCI-H23 = system: NCI-H23
U-251 = system: U-251
SR = system: SR
SW-620 = system: SW-620
SK-MEL-2 = system: SK-MEL-2
COLO 205 = system: COLO 205
SNB-19 = system: SNB-19
HL-60 = system: HL-60
SF-268 = system: SF-268
NCI-H522 = system: NCI-H522
SK-MEL-5 = system: SK-MEL-5
M14 = system: M14
SN12C = system: SN12C

Compound: CCOC(=O)CC(=O)ON(C)C(=O)Cc1ccccc1
- GI50 (A549): > 100 µM (inactive)
- GI50 (UO-31): > 100 µM (inactive)
- GI50 (CAKI-1): > 100 µM (inactive)
- GI50 (786-0): > 100 µM (inactive)
- GI50 (A498): > 100 µM (inactive)
- GI50 (CCRF-CEM): > 100 µM (inactive)
- GI50 (NCI-H460): > 100 µM (inactive)
- GI50 (KM12): > 100 µM (inactive)
- GI50 (RPMI-8226): > 100 µM (inactive)
- GI50 (OVCAR-8): > 100 µM (inactive)
- GI50 (TK-10): > 10 µM (inactive)
- GI50 (UACC-62): > 100 µM (inactive)
- GI50 (OVCAR-4): > 100 µM (inactive)
- GI50 (DLD-1): > 100 µM (inactive)
- GI50 (SNB-78): > 100 µM (inactive)
- GI50 (EKVX): > 100 µM (inactive)
- GI50 (M19-MEL): > 100 µM (inactive)
- GI50 (IGROV-1): > 100 µM (inactive)
- GI50 (HT-29): > 100 µM (inactive)
- GI50 (LOX IMVI): > 100 µM (inactive)
- GI50 (UACC-257): > 100 µM (inactive)
- GI50 (KM-20L2): > 100 µM (inactive)
- GI50 (LXFL 529): > 100 µM (inactive)
- GI50 (SF-295): > 100 µM (inactive)
- GI50 (ACHN): > 100 µM (inactive)
- GI50 (SF-539): > 100 µM (inactive)
- GI50 (OVCAR-3): > 100 µM (inactive)
- GI50 (HCT-116): > 100 µM (inactive)
- GI50 (OVCAR-5): > 100 µM (inactive)
- GI50 (NCI-H226): > 100 µM (inactive)
- GI50 (DMS-114): > 100 µM (inactive)
- GI50 (RXF 631): > 100 µM (inactive)
- GI50 (HCT-15): > 100 µM
- GI50 (SK-OV-3): > 100 µM (inactive)
- GI50 (HOP-62): > 100 µM (inactive)
- GI50 (Malme-3M): > 100 µM (inactive)
- GI50 (NCI-H23): > 100 µM (inactive)
- GI50 (U-251): > 100 µM (inactive)
- GI50 (SR): > 100 µM (inactive)
- GI50 (SW-620): > 100 µM (inactive)
- GI50 (SK-MEL-2): > 100 µM (inactive)
- GI50 (COLO 205): > 100 µM (inactive)
- GI50 (SNB-19): > 100 µM (inactive)
- GI50 (HL-60): > 100 µM (inactive)
- GI50 (SF-268): > 100 µM (inactive)
- GI50 (NCI-H522): > 100 µM (inactive)
- GI50 (SK-MEL-5): > 100 µM (inactive)
- GI50 (M14): > 100 µM (inactive)
- GI50 (SN12C): > 100 µM (inactive)

Reference: ChEMBL document CHEMBL1201862, “PubChem BioAssay data set” (2004)
